Laboratory results published in patent publication US20260042769A1, “TRIARYL AGONISTS OF ALPHA-2 ADRENERGIC RECEPTORS” (ALCEPTOR THERAPEUTICS, INC., priority 2023, published 2026).

These compounds were tested against T1, human ADRA2B receptor (Homo sapiens, UniProt P18089) (assay: GTPγS agonist assay, ADRA2B receptor). Details: read-out: GTPase - Human Alpha2B EC50.
T1 construct: expressed in transfected cells
T1 sequence (P18089 1-450): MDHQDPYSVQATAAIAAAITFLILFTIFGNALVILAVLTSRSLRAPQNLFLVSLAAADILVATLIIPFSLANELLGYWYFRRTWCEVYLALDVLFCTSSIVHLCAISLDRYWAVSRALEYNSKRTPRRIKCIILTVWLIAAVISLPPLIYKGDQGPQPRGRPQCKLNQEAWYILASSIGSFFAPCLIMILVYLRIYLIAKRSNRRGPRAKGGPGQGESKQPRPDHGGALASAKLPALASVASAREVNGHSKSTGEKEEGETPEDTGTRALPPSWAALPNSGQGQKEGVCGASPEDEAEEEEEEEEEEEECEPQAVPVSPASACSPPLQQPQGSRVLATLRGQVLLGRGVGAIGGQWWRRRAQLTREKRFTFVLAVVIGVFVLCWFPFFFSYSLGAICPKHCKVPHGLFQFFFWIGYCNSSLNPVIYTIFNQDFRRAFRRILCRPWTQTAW
Assay type: biochemical
Experimental: GTP ? S Agonist Assays (ADRA2A, ADRA2B, and ADRA2C Receptors)
Membranes were prepared for GTP ? S binding assays from CHO-K1 cells stably expressing human ADRA2A, ADRA2B, or ADRA2C receptor. Briefly, cells were grown in 5-layer cell culture flasks. Cells were washed with 50 mL of PBS and then dissociated with 0.05% trypsin. Dissociated cells were then collected by centrifugation at 650×g for 8 min at 4° C. Pellets were washed again in PBS by centrifugation and resuspended in 30 mL of 20 mM HEPES, 10 mM EDTA, pH 7.4. After sitting on ice for 30 min, membranes were collected by centrifugation at 50000×g for 15 min at 4° C., resuspended in 30 mL of 20 mM HEPES, 0.1 mM EDTA, pH 7.4 and collected again by centrifugation. Pellets were then washed twice by centrifugation in 30 mL of 20 mM HEPES, pH 7.4, and stored at −80° C. until the day of the assay. On the day of the assay, pellets were thawed on ice and resuspended in 1 mL of 20 mM HEPES, pH 7.4, 10 mM MgCl2, 100 mM NaCl using dounce homogenization. Membrane protein concentration was determined by BCA protein assay (Promega, Madison, WI) according to Promega guidelines.
On the day of the assay, serial dilutions of test compounds were brought up in assay buffer (20 mM HEPES, 10 mM MgCl2, 200 mM NaCl) at 10× final assay concentration. 50 μL/well of membrane homogenates (containing 5 μg of membrane protein for ADRA2A, ADRA2B, or 7.5 μg for ADRA2C) were prepared in assay buffer supplemented with GDP at 2× final assay concentration (5 μM GDP) and dispensed into 96 well polypropylene, U-bottom Greiner plates. Then, 10 μL of compounds were added to assay plates and incubated for 10 min at room temperature. […] The binding reaction was incubated for 1 h at 37° C. Membranes in assay reactions were then transferred to GF/C filter plates (UniFilter, Perkin Elmer) and washed three times using a FilterMate Harvester (Perkin Elmer) with cold assay buffer containing no GDP. Filter plates were then dried at 40° C. overnight followed by the addition of 30 μL/well of Beta Plate Scintillation liquid. Plates were top and bottom sealed before being read on TopCount scintillation counter (Perkin Elmer, Waltham, MA).

SMILES	EC50 [nM]
Cc1cccc([C@@H](Cc2cncs2)c2c[nH]cn2)c1C [Compound 128, 5-[(R)-2-(4-imidazolyl)-2-(2,3-xylyl)ethyl]-1,3-thiazole]	50 to 500
Cc1cccc(C(Cc2cncs2)c2c[nH]cn2)c1C (centres unmarked) [Compound 116, 5-[2-(4-imidazolyl)-2-(2,3-xylyl)ethyl]-1,3-thiazole]	10 to 50
Cc1cccc(C(Cc2cccnn2)c2c[nH]cn2)c1 (centres unmarked) [Compound 228, 3-[2-(4-imidazolyl)-2-(m-tolyl)ethyl]pyridazine]	> 500
Cc1cccc(C(Cc2cscn2)c2c[nH]cn2)c1C (centres unmarked) [Compound 118, 4-[2-(4-imidazolyl)-2-(2,3-xylyl)ethyl]-1,3-thiazole]	10 to 50
Cc1cccc(C(Cc2ccnnc2)c2cnc[nH]2)c1C (centres unmarked) [Compound 85, 4-[2-(2,3-dimethylphenyl)-2-(1H-imidazol-4-yl)ethyl] pyridazine]	10 to 50
COc1nccc(C[C@H](c2c[nH]cn2)c2cccc(C)c2C)n1 [Compound 53, 4-[(2S)-2-(2,3-dimethylphenyl)-2-(1H-imidazol-4-yl)ethyl]-2-methoxy-pyrimidine]	< 10
Cc1cccc(C(Cc2cccc(=O)[nH]2)c2cnc[nH]2)c1C (centres unmarked) [Compound 87, 6-[2-(2,3-dimethylphenyl)-2-(1H-imidazol-4-yl)ethyl] pyridin-2-ol]	> 500
COc1ccc(Cl)c(C(Cc2cccnn2)c2c[nH]cn2)c1 (centres unmarked) [Compound 227, 3-[2-(2-chloro-5-methoxyphenyl)-2-(4-imidazolyl)ethyl] pyridazine]	> 500
COc1cccc(C[C@H](c2c[nH]cn2)c2cccc(Cl)c2C)n1 [Compound 14, 2-[(2S)-2-(3-chloro-2-methylphenyl)-2-(1H-imidazol-4-yl)ethyl]-6-methoxypyridine]	50 to 500
Cc1cccc(C(Cc2ncccn2)c2cnc[nH]2)c1C (centres unmarked) [Compound 93, 2-[2-(2,3-dimethylphenyl)-2-(1H-imidazol-4-yl)ethyl] pyrimidine]	50 to 500
Cc1cc(C)nc(CC(c2cnc[nH]2)c2cccc(C)c2C)c1 (centres unmarked) [Compound 95, 2-[2-(2,3-dimethylphenyl)-2-(1H-imidazol-4-yl)ethyl]-4,6-dimethyl-pyridine]	< 10
Cc1cncc(CC(c2cnc[nH]2)c2cccc(C)c2C)n1 (centres unmarked) [Compound 88, 2-[2-(2,3-dimethylphenyl)-2-(1H-imidazol-4-yl)ethyl]-6-methylpyrazine]	10 to 50
Cc1cccc([C@H](Cc2cccnn2)c2c[nH]cn2)c1Cl [Compound 213, 3-[(S)-2-(2-chloro-3-tolyl)-2-(4-imidazolyl)ethyl] pyridazine]	10 to 50
Cc1cccc([C@H](Cc2cccnn2)c2cnc[nH]2)c1C [Compound 55, 3-[(2S)-2-(2,3-dimethylphenyl)-2-(1H-imidazol-4-yl)ethyl] pyridazine]	10 to 50
Cc1nccc(C[C@H](c2cnc[nH]2)c2cccc(C)c2C)n1 [Compound 70, 4-[(2S)-2-(2,3-dimethylphenyl)-2-(1H-imidazol-4-yl)ethyl]-2-methyl-pyrimidine]	< 10
Cc1cccc([C@@H](Cc2ccon2)c2c[nH]cn2)c1C [Compound 100, 3-[(R)-2-(4-imidazolyl)-2-(2,3-xylyl)ethyl] isoxazole]	10 to 50

Next, values leading:

EC50 [nM]	SMILES
50 to 500	COc1cccc(C(Cc2cccc(OC)n2)c2cnc[nH]2)c1 (centres unmarked) [Compound 25, 2-[2-(1H-imidazol-4-yl)-2-(3-methoxyphenyl)ethyl]-6-methoxypyridine]
50 to 500	COc1cccc(C[C@@H](c2cnc[nH]2)c2cccc3c2OCC3)n1 [Compound 17, 2-[(2R)-2-(2,3-dihydro-1-benzofuran-7-yl)-2-(1H-imidazol-4-yl)ethyl]-6-methoxypyridine]
> 500	COc1nccc(CC(c2ccc(C(F)(F)F)cc2)c2c[nH]cn2)n1 (centres unmarked) [Compound 199, 4-{2-(4-imidazolyl)-2-[p-(trifluoromethyl)phenyl]ethyl}-2-methoxypyrimidine]
< 10	COc1cccc(CC(c2c[nH]cn2)c2cccc(C)c2Cl)n1 (centres unmarked) [Compound 28, 2-[2-(2-chloro-3-methylphenyl)-2-(1H-imidazol-4-yl)ethyl]-6-methoxypyridine]
> 500	COc1c(C)cccc1[C@@H](Cc1ccccn1)c1cnc[nH]1 [Compound 34, 2-[(2R)-2-(1H-imidazol-4-yl)-2-(2-methoxy-3-methylphenyl)ethyl]pyridine]
< 10	COc1cccc(C[C@@H](c2c[nH]cn2)c2cccc(OC)c2Cl)n1 [Compound 110, 4-[(R)-1-(2-chloro-3-methoxyphenyl)-2-(6-methoxy-2-pyridyl)ethyl] imidazole]
50 to 500	COc1nccc(CC(c2ccc(Cl)cc2)c2c[nH]cn2)n1 (centres unmarked) [Compound 159, 4-[2-(p-chlorophenyl)-2-(4-imidazolyl)ethyl]-2-methoxypyrimidine]
> 500	c1ccc(C[C@H](c2cnc[nH]2)c2cccc3c2COC3)nc1 [Compound 45, 2-[(2S)-2-(1,3-dihydro-2-benzofuran-4-yl)-2-(1H-imidazol-4-yl)ethyl] pyridine]
10 to 50	COc1nccc(CC(c2c[nH]cn2)c2cccc3c2cnn3C)n1 (centres unmarked) [Compound 194, 4-[1-(4-imidazolyl)-2-(2-methoxy-4-pyrimidinyl)ethyl]-1-methyl-1H-indazole]
< 10	COc1cccc(CC(c2cnc[nH]2)c2cccc(OC)c2Cl)n1 (centres unmarked) [Compound 20, 2-[2-(2-chloro-3-methoxyphenyl)-2-(1H-imidazol-4-yl)ethyl]-6-methoxypyridine]
50 to 500	COc1cccc(C[C@H](c2c[nH]cn2)c2cccc(OC)c2Cl)n1 [Compound 111, 4-[(S)-1-(2-chloro-3-methoxyphenyl)-2-(6-methoxy-2-pyridyl)ethyl] imidazole]
10 to 50	c1cnnc(C[C@@H](c2c[nH]cn2)c2cccc3c2OCC3)c1 (single isomer, unassigned) [Compound 362]
50 to 500	Cc1cccc(C(Cc2c(C)noc2C)c2c[nH]cn2)c1C (centres unmarked) [Compound 113, 4-[2-(4-imidazolyl)-2-(2,3-xylyl)ethyl]-3,5-dimethyl-isoxazole]
10 to 50	Cc1cnc(CC(c2c[nH]cn2)c2cccc3c2OCC3)s1 (centres unmarked) [Compound 279, 2-[2-(2,3-dihydro-1-benzofuran-7-yl)-2-(4-imidazolyl)ethyl]-5-methyl-1,3-thiazole]
> 500	COc1ccccc1[C@H](Cc1ccccn1)c1cnc[nH]1 [Compound 31, 2-[(2S)-2-(1H-imidazol-4-yl)-2-(2-methoxyphenyl)ethyl]pyridine]
< 10	COc1nccc(CC(c2c[nH]cn2)c2cccc3c2ccn3C)n1 (centres unmarked) [Compound 193, 4-[2-(4-imidazolyl)-2-(1-methyl-4-indolyl)ethyl]-2-methoxypyrimidine]
> 500	FC(F)(F)c1ccc(Cl)c(C(Cc2cccnn2)c2c[nH]cn2)c1 (centres unmarked) [Compound 361, 3-{2-[2-chloro-5-(trifluoromethyl)phenyl]-2-(4-imidazolyl)ethyl}pyridazine]
> 500	Cc1cccc([C@H](Cc2ccccn2)c2cnc[nH]2)c1F [Compound 39, 2-[(2S)-2-(2-fluoro-3-methylphenyl)-2-(1H-imidazol-4-yl)ethyl] pyridine]
> 500	Cc1cc(C[C@@H](c2c[nH]cn2)c2cccc(C)c2C)no1 [Compound 135, 3-[(R)-2-(4-imidazolyl)-2-(2,3-xylyl)ethyl]-5-methyl-isoxazole]
< 10	Cc1cccc(C(Cc2cnn(C3CC3)c2)c2c[nH]cn2)c1C (centres unmarked) [Compound 271, 1-cyclopropyl-4-[2-(4-imidazolyl)-2-(2,3-xylyl)ethyl]pyrazole]
> 500	COc1cccc(C[C@H](c2cccc(Cl)c2)c2cnc[nH]2)n1 [Compound 22, 2-[(2R)-2-(3-chlorophenyl)-2-(1H-imidazol-4-yl)ethyl]-6-methoxypyridine]
> 500	COc1cccc(C[C@H](c2c[nH]cn2)c2cccc3c2CCO3)n1 [Compound 18, 2-[(2S)-2-(2,3-dihydro-1-benzofuran-4-yl)-2-(1H-imidazol-4-yl)ethyl]-6-methoxypyridine]
